Measured values taken from patent US12421229B2, “Hydropyrido[1,2-α]pyrazine compounds for the treatment of autoimmune disease” (Hoffmann-La Roche Inc., priority 2019, dated 2025).

Target: T1, human TLR9 (Homo sapiens, UniProt Q9NR96)
T1 construct: host or cells: HEK293 (HEK-Blue hTLR9)
T1 sequence (Q9NR96 26-1032): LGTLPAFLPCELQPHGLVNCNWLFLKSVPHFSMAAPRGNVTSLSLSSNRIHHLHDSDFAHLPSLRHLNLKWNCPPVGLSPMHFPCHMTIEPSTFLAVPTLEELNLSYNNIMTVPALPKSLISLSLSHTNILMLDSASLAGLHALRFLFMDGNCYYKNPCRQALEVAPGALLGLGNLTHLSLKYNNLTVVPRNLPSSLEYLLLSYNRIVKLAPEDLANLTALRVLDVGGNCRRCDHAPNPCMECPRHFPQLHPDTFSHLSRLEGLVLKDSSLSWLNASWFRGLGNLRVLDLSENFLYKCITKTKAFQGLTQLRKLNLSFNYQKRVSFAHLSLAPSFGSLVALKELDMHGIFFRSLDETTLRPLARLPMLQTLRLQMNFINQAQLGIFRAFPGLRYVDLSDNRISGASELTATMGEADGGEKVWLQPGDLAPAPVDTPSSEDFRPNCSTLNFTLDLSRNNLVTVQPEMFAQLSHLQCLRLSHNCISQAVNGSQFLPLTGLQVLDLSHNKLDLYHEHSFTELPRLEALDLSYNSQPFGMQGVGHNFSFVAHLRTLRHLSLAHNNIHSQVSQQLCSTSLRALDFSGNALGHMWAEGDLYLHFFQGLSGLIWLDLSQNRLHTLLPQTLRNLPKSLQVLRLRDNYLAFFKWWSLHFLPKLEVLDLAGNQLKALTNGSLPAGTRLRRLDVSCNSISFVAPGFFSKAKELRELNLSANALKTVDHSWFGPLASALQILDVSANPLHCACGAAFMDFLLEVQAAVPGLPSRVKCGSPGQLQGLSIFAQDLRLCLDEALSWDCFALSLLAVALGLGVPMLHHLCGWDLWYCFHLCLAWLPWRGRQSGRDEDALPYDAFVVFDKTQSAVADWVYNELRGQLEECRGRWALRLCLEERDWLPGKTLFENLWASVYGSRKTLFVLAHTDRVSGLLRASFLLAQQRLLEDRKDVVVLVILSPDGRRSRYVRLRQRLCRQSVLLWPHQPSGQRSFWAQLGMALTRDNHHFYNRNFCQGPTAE
Test: HEK293-Blue-hTLR-9 cells assay
Type: cell-based
Settings: HEK293-Blue-hTLR9 cells, ODN2006 stimulation, 20 hrs, SEAP reporter; read-out: HEK/hTLR9 IC50
From the text: A stable HEK293-Blue-hTLR-9 cell line was purchased from InvivoGen (Cat. #: hkb-htlr9, San Diego, California, USA). These cells were originally designed for studying the stimulation of human TLR9 by monitoring the activation of NF-κB. A SEAP (secreted embryonic alkaline phosphatase) reporter gene was placed under the control of the IFN-β minimal promoter fused to five NF-κB and AP-1-binding sites. The SEAP was induced by activating NF-κB and AP-1 via stimulating HEK-Blue hTLR9 cells with TLR9 ligands. Therefore the reporter expression was declined by TLR9 antagonist under the stimulation of a ligand, such as ODN2006 (Cat. #: tlrl-2006-1, Invivogen, San Diego, California, USA), for incubation of 20 hrs. The cell culture supernatant SEAP reporter activity was determined using QUANTI-Blue™ kit (Cat. #: rep-qb1, Invivogen, San Diego, California, USA) at a wavelength of 640 nm, a detection medium that turns purple or blue in the presence of alkaline phosphatase.
HEK293-Blue-hTLR9 cells were incubated at a density of 250,000˜450,000 cells/mL in a volume of 170 μL in a 96-well plate in Dulbecco's Modified Eagle's medium (DMEM) containing 4.5 g/L glucose, 50 U/mL penicillin, […], 2 mM L-glutamine, 10% (v/v) heat-inactivated fetal bovine serum with addition of 20 μL test compound in a serial dilution in the presence of final DMSO at 1% and 10 μL of 20 uM ODN2006 in above DMEM, perform incubation under 37° C. in a CO2 incubator for 20 hrs. Then 20 μL of the supernatant from each well was incubated with 180 μL Quanti-blue substrate solution at 37° C. for 2 h and the absorbance was read at 620˜655 nm using a spectrophotometer. The signaling pathway that TLR9 activation leads to downstream NF-κB activation has been widely accepted, and therefore similar reporter assay was modified for evaluating TLR9 antagonist.

IC50	Structure (SMILES)
66 nM	CO[C@H]1CN(c2ccc([C@@H]3CCN4[C@@H](C3)CN(c3ccc(C#N)c5ncccc35)C[C@H]4C)cn2)C[C@H]1N [Example 12, 5-[(4R,8R,9aS)-8-[6-[(3R,4S)-3-amino-4-methoxy-pyrrolidin-1-yl]-3-pyridyl]-4-methyl-1,3,4,6,7,8,9,9a-octahydropyrido[1,2-a]pyrazin-2-yl]quinoline-8-carbonitrile]
34 nM	[2H]c1ccc2c(N3C[C@@H]4C[C@H](N5CCN(c6ccncc6)CC5)CCN4[C@H](C)C3)ccc(C#N)c2n1 [Example 37, 5-[(4R,8R,9aS)-4-methyl-8-[4-(4-pyridyl)piperazin-1-yl]-1,3,4,6,7,8,9,9a-octahydropyrido[1,2-a]pyrazin-2-yl]-2-deuterio-quinoline-8-carbonitrile]
< 32 nM	C[C@@H]1CN(c2ccc(C#N)c3ncccc23)C[C@@H]2C[C@H](NCc3ccc(N4CCNCC4)cc3)CCN21 [Example 1, 5-[(4R,8R,9aS)-4-methyl-8-[(4-piperazin-1-ylphenyl)methylamino]-1,3,4,6,7,8,9,9a-octahydropyrido[1,2-a]pyrazin-2-yl]quinoline-8-carbonitrile]
92 nM	C[C@@H]1CN(c2ccc(C#N)c3ncccc23)CC2C[C@H](c3ccc(N4CCNCC4)cc3)CCN21 (stereo partly drawn) [Example 3, 5-[(4R,8R)-4-methyl-8-(4-piperazin-1-ylphenyl)-1,3,4,6,7,8,9,9a-octahydropyrido[1,2-a]pyrazin-2-yl]quinoline-8-carbonitrile]
44 nM	CO[C@H]1CN(c2ccc(O[C@H]3CCN4[C@@H](C3)CN(c3ccc(C#N)c5ncccc35)C[C@H]4C)cn2)C[C@H]1N [Example 28, 5-[(4R,8S,9aS)-8-[[6-[(3R,4S)-3-amino-4-methoxy-pyrrolidin-1-yl]-3-pyridyl]oxy]-4-methyl-1,3,4,6,7,8,9,9a-octahydropyrido[1,2-a]pyrazin-2-yl]quinoline-8-carbonitrile]
60 nM	C[C@@H]1CN(c2ccc(C#N)c3ncccc23)C[C@@H]2C[C@@H](Oc3cnc(N4CCNCC4)nc3)CCN21 [Example 18, 5-[(4R,8S,9aS)-4-methyl-8-(2-piperazin-1-ylpyrimidin-5-yl)oxy-1,3,4,6,7,8,9,9a-octahydropyrido[1,2-a]pyrazin-2-yl]quinoline-8-carbonitrile]
78 nM	CO[C@@H]1CN(c2ccc(C3CN([C@@H]4CCN5[C@@H](C4)CN(c4ccc(C#N)c6ncccc46)C[C@H]5C)C3)cc2)C[C@H]1N [Example 30, 5-[(4R,8R,9aS)-8-[3-[4-[(3R,4R)-3-amino-4-methoxy-pyrrolidin-1-yl]phenyl]azetidin-1-yl]-4-methyl-1,3,4,6,7,8,9,9a-octahydropyrido[1,2-a]pyrazin-2-yl]quinoline-8-carbonitrile]
32 nM	[2H]c1ccc2c(N3C[C@@H]4C[C@@H](N5CC(c6ccc(N7C[C@@H](N)[C@H](OC)C7)cc6)C5)CCN4[C@H](C)C3)ccc(C#N)c2n1 [Example 36]
37 nM	C[C@@H]1CN(c2ccc(C#N)c3ncccc23)C[C@@H]2C[C@@H](Oc3ccc(N4CCNCC4)nc3)CCN21 [Example 16, 5-[(4R,8S,9aS)-4-methyl-8-[(6-piperazin-1-yl-3-pyridyl)oxy]-1,3,4,6,7,8,9,9a-octahydropyrido[1,2-a]pyrazin-2-yl]quinoline-8-carbonitrile]
95 nM	C[C@@H]1CN(c2ccc(C#N)c3ncccc23)C[C@@H]2C[C@@H](c3ccc(CC4CNCCO4)cc3)CCN21 (stereo partly drawn) [Example 26, 5-[(4R,8S,9aS)-4-methyl-8-[4-(morpholin-2-ylmethyl)phenyl]-1,3,4,6,7,8,9,9a-octahydropyrido[1,2-a]pyrazin-2-yl]quinoline-8-carbonitrile]
72 nM	C[C@@H]1CN(c2ccc(C#N)c3ncccc23)C[C@@H]2C[C@H](c3ccc([C@@H]4CNCCO4)cc3)CCN21 [Example 27, 5-[(4R,8R,9aS)-4-methyl-8-[4-[(2R)-morpholin-2-yl]phenyl]-1,3,4,6,7,8,9,9a-octahydropyrido[1,2-a]pyrazin-2-yl]quinoline-8-carbonitrile]
184 nM	C[C@@H]1CN(c2ccc(C#N)c3ncccc23)C[C@@H]2C[C@H](c3ccc(N4CC(N)C4)nc3)CCN21 [Example 7, 5-[(4R,8R,9aS)-8-[6-(3-aminoazetidin-1-yl)-3-pyridyl]-4-methyl-1,3,4,6,7,8,9,9a-octahydropyrido[1,2-a]pyrazin-2-yl]quinoline-8-carbonitrile]
75 nM	C[C@@H]1CN(c2ccc(C#N)c3ncccc23)C[C@@H]2C[C@H](c3ccc(N4CCOC[C@@H](N)C4)nc3)CCN21 [Example 23, 5-[(4R,8R,9aS)-8[6-[(6S)-6-amino-1,4-oxazepan-4-yl]-3-pyridyl]-4-methyl-1,3,4,6,7,8,9,9a-octahydropyrido[1,2-a]pyrazin-2-yl]quinoline-8-carbonitrile]
78 nM	CO[C@@H]1CN(c2ccc([C@@H]3CCN4[C@@H](C3)CN(c3ccc(C#N)c5ncccc35)C[C@H]4C)cn2)C[C@H]1N [Example 14, 5-[(4R,8R,9aS)-8-[6-[(3R,4R)-3-amino-4-methoxy-pyrrolidin-1-yl]-3-pyridyl]-4-methyl-1,3,4,6,7,8,9,9a-octahydropyrido[1,2-a]pyrazin-2-yl]quinoline-8-carbonitrile]
84 nM	C[C@@H]1CN(c2ccc(C#N)c3ncccc23)C[C@H]2C[C@H](c3ccc(N4CCNCC4)nc3)CCN21 [Example 15, 5-[(4R,8R,9aR)-4-methyl-8-(6-piperazin-1-yl-3-pyridyl)-1,3,4,6,7,8,9,9a-octahydropyrido[1,2-a]pyrazin-2-yl]quinoline-8-carbonitrile]
94 nM	CO[C@@H]1CN(c2ccc([C@@H]3CCN4[C@@H](C3)CN(c3ccc(C#N)c5ncccc35)C[C@H]4C)cn2)C[C@@H]1N [Example 13, 5-[(4R,8R,9aS)-8-[6-[(3S,4R)-3-amino-4-methoxy-pyrrolidin-1-yl]-3-pyridyl]-4-methyl-1,3,4,6,7,8,9,9a-octahydropyrido[1,2-a]pyrazin-2-yl]quinoline-8-carbonitrile]
89 nM	C[C@@H]1CN(c2ccc(C#N)c3ncccc23)C[C@@H]2C[C@@H](Oc3cncc(N4CCNCC4)c3)CCN21 [Example 29, 5-[(4R,8S,9aS)-4-methyl-8-[(5-piperazin-1-yl-3-pyridyl)oxy]-1,3,4,6,7,8,9,9a-octahydropyrido[1,2-a]pyrazin-2-yl]quinoline-8-carbonitrile]
81 nM	C[C@@H]1CN(c2ccc(C#N)c3ncccc23)C[C@@H]2C[C@H](c3ccc(N4CCNCC4)nc3)CCN21 (stereo in doubt) [Example 2, 5-[(4R,8R)-4-methyl-8-(6-piperazin-1-yl-3-pyridyl)-1,3,4,6,7,8,9,9a-octahydropyrido[1,2-a]pyrazin-2-yl]quinoline-8-carbonitrile]
82 nM	C[C@@H]1CN(c2ccc(C#N)c3ncccc23)C[C@@H]2C[C@@H](c3ccc(C4CNCCO4)cc3)CCN21 (stereo partly drawn) [Example 24, 5-[(4R,8S,9aS)-4-methyl-8-(4-morpholin-2-ylphenyl)-1,3,4,6,7,8,9,9a-octahydropyrido[1,2-a]pyrazin-2-yl]quinoline-8-carbonitrile]
